The source of these data is patent publication US8859584B2, “TRPV1 antagonists” (AbbVie Inc., priority 2011, dated 2014).

Experiment [1] addresses T1, human TRPV1 (Homo sapiens, UniProt Q8NER1).
T1 construct: expressed in transfected cells
Briefly: Capsaicin Activation Assay (FLIPR intracellular Ca2+, recombinant HEK293 cells). Conditions: recombinant HEK293 cells expressing hTRPV1; 50 nM capsaicin; read-out: human TRPV1 capsaicin IC50. The experiment is classed as cell-based.

In experiment [2] the target is T1, human TRPV1. As to the kind of experiment: Acid Activation Assay (pH 5.0, FLIPR intracellular Ca2+, recombinant HEK293 cells). The experiment is classed as cell-based. As to conditions: percentage of maximal pH 5.0-induced response remaining; HEK293 hTRPV1; max concentration 37.5 μM. The essentials: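 HEK293 cells stably expressing recombinant hTRPV1 were loaded with calcium dye for 90-120 min at 25° C and pre-treated with compound for 3 min before a pH 5.0 (DPBS/MES) challenge. Peak FLIPR fluorescence over baseline is given as percentage of the maximal pH 5.0-induced response.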

T1 sequence (Q8NER1 whole entry): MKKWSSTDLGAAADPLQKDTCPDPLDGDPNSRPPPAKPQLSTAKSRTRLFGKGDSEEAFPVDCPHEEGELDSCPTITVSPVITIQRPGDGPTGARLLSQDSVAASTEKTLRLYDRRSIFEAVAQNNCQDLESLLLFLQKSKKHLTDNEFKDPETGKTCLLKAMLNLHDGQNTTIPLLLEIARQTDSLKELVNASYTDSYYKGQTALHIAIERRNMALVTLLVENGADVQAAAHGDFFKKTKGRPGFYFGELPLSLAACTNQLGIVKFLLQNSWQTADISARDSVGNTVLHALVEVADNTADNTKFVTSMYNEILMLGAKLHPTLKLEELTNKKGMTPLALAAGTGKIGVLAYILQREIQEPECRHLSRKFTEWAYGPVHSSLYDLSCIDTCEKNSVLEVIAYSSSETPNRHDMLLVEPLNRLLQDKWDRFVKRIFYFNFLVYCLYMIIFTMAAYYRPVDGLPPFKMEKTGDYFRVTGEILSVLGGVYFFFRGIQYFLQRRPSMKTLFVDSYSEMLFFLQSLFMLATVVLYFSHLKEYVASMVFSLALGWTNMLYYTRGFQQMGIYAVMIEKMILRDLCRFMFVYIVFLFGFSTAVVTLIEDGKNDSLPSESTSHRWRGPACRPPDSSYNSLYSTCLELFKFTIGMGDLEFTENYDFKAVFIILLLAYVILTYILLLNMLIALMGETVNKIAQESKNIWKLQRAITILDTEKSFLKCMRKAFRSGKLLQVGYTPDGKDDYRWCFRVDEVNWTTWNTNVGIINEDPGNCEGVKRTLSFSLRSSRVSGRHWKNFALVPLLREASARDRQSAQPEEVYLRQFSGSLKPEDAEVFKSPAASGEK

Take `CCC1(CC)C[C@@H](NC(=O)Nc2cccc3c2C[C@H](O)C3)c2ccc(Cl)c(Cl)c2O1` [Example 55, 1-[(4R)-7,8-dichloro-2,2-diethyl-3,4-dihydro-2H-chromen-4-yl]-3-[(2R)-2-hydroxy-2,3-dihydro-1H-inden-4-yl]urea]: on human TRPV1 [1], the IC50 came to 240 nM. Besides, on human TRPV1 [2], the “human TRPV1 H+ (max % remain)” value stood at 72%.

For `O=C(Nc1cccc2c1CC(O)C2)NC1CC(c2ccc(F)cc2)Oc2ccccc21` (stereo not drawn) [Example 119, 1-[2-(4-fluorophenyl)-3,4-dihydro-2H-chromen-4-yl]-3-(2-hydroxy-2,3-dihydro-1H-inden-4-yl)urea], the 50% inhibitory concentration (IC50) at human TRPV1 [1] came out at 430 nM. The “human TRPV1 H+ (max % remain)” value on human TRPV1 [2] stood at 72%.

Consider `CC1(C)Oc2ccc(F)cc2CC1NC(=O)Nc1cccc2c1C[C@H](O)C2` (stereo partly drawn) [Example 91, 1-(6-fluoro-2,2-dimethyl-3,4-dihydro-2H-chromen-3-yl)-3-[(2R)-2-hydroxy-2,3-dihydro-1H-inden-4-yl]urea], for which the IC50 at human TRPV1 [1] was determined as 82 nM. At human TRPV1 [2], the “human TRPV1 H+ (max % remain)” value was 78%.

Turning to `O=C(Nc1cccc2c1C[C@@H](O)C2)N[C@@H]1CC(CF)(CF)Oc2cc(OC(F)(F)F)ccc21` [Example 76, 1-[(4R)-2,2-bis(fluoromethyl)-7-(trifluoromethoxy)-3,4-dihydro-2H-chromen-4-yl]-3-[(2S)-2-hydroxy-2,3-dihydro-1H-inden-4-yl]urea], the IC50 on human TRPV1 [1] was determined as 32 nM. In addition, the “human TRPV1 H+ (max % remain)” value at human TRPV1 [2] is reported as 1%.

With `CC1(C)C[C@@H](NC(=O)Nc2ccc(F)c3c2C[C@H](O)C3)c2cccc(C(F)(F)F)c2O1` [Example 135, 1-[(4R)-2,2-dimethyl-8-(trifluoromethyl)-3,4-dihydro-2H-chromen-4-yl]-3-[(2S)-7-fluoro-2-hydroxy-2,3-dihydro-1H-inden-4-yl]urea], the concentration for half-maximal inhibition (IC50) on human TRPV1 [1] was found to be 42 nM. For the same compound, the “human TRPV1 H+ (max % remain)” value at human TRPV1 [2] was found to be 3%.

For the compound `CCCC1(CCC)C[C@@H](NC(=O)Nc2cccc3c2C[C@H](O)C3)c2cccc(F)c2O1` [Example 59, 1-[(4R)-8-fluoro-2,2-dipropyl-3,4-dihydro-2H-chromen-4-yl]-3-[(2R)-2-hydroxy-2,3-dihydro-1H-inden-4-yl]urea], the IC50 on human TRPV1 [1] was found to be 23 nM. In addition, the “human TRPV1 H+ (max % remain)” value at human TRPV1 [2] is recorded as 99%.

With `C[C@]1(CF)C[C@@H](NC(=O)Nc2c(F)ccc3c2CC(O)C3)c2ccc(Cl)cc2O1` (stereo partly drawn) [Example 25, 1-[(2R,4R)-7-chloro-2-(fluoromethyl)-2-methyl-3,4-dihydro-2H-chromen-4-yl]-3-(5-fluoro-2-hydroxy-2,3-dihydro-1H-inden-4-yl)urea], the IC50 at human TRPV1 [1] was found to be 41 nM. At human TRPV1 [2], the “human TRPV1 H+ (max % remain)” value is recorded as 30%.

Turning to `O=C(Nc1cccc2c1CC(O)C2)NC1c2ccccc2CC1Cc1ccc(Cl)c(Cl)c1` (stereo not drawn) [Example 124, 1-[2-(3,4-dichlorobenzyl)-2,3-dihydro-1H-inden-1-yl]-3-(2-hydroxy-2,3-dihydro-1H-inden-4-yl)urea], the IC50 at human TRPV1 [1] is above 38000 nM. At human TRPV1 [2], the “human TRPV1 H+ (max % remain)” value is on record as 63%.

Regarding `O=C(Nc1cccc2c1C[C@@H](O)C2)N[C@@H]1CC(CF)(CF)Oc2ccc(F)cc21` [Example 78, 1-[(4R)-6-fluoro-2,2-bis(fluoromethyl)-3,4-dihydro-2H-chromen-4-yl]-3-[(2S)-2-hydroxy-2,3-dihydro-1H-inden-4-yl]urea], the IC50 on human TRPV1 [1] stood at 1400 nM. Besides, the “human TRPV1 H+ (max % remain)” value at human TRPV1 [2] is 12%.

As for `O=C(Nc1c(F)ccc2c1C[C@H](O)C2)N[C@@H]1CC(CF)(CF)Oc2cc(C(F)(F)F)ccc21` [Example 96, 1-[(4R)-2,2-bis(fluoromethyl)-7-(trifluoromethyl)-3,4-dihydro-2H-chromen-4-yl]-3-[(2R)-5-fluoro-2-hydroxy-2,3-dihydro-1H-inden-4-yl]urea], the IC50 at human TRPV1 [1] worked out at 62 nM. On human TRPV1 [2], the “human TRPV1 H+ (max % remain)” value is 2%.

For the compound `CC1(C)C[C@@H](NC(=O)Nc2cccc3c2C[C@@H](O)C3)c2ccc(C(F)(F)F)cc2O1` [Example 77, 1-[(4R)-2,2-dimethyl-7-(trifluoromethyl)-3,4-dihydro-2H-chromen-4-yl]-3-[(2S)-2-hydroxy-2,3-dihydro-1H-inden-4-yl]urea], at human TRPV1 [1], the IC50 stood at 12 nM. For the same compound, the “human TRPV1 H+ (max % remain)” value on human TRPV1 [2] was 1%.

Turning to `CCC1(CC)C[C@@H](NC(=O)Nc2cccc3c2C[C@H](O)C3)c2ccc(F)cc2O1` [Example 52, 1-[(4R)-2,2-diethyl-7-fluoro-3,4-dihydro-2H-chromen-4-yl]-3-[(2R)-2-hydroxy-2,3-dihydro-1H-inden-4-yl]urea], on human TRPV1 [1], the half-inhibitory concentration (IC50) was 13 nM. Further, the “human TRPV1 H+ (max % remain)” value on human TRPV1 [2] amounted to 73%.

Regarding `O=C(Nc1cccc2c1C[C@H](O)C2)N[C@@H]1CCc2cc(F)ccc21` [Example 92, 1-[(1R)-5-fluoro-2,3-dihydro-1H-inden-1-yl]-3-[(2R)-2-hydroxy-2,3-dihydro-1H-inden-4-yl]urea], the IC50 at human TRPV1 [1] was 270 nM. Moreover, the “human TRPV1 H+ (max % remain)” value at human TRPV1 [2] is listed as 60%.

Turning to “1-(5-chloro-2,3-dihydro-1H-inden-1-yl)-3-(7-fluoro-2-hydroxy-2,3-dihydro-1H-inden-4-yl)urea [Example 174]”, the IC50 at human TRPV1 [1] was 420 nM. The “human TRPV1 H+ (max % remain)” value on human TRPV1 [2] stood at 29%.

Regarding `O=C(Nc1ccc(F)c2c1C[C@H](O)C2)N[C@@H]1CC2(CCC2)Oc2ccc(F)cc21` [Example 143, 1-[(4R)-6-fluoro-3,4-dihydrospiro[chromene-2,1′-cyclobutan]-4-yl]-3-[(2S)-7-fluoro-2-hydroxy-2,3-dihydro-1H-inden-4-yl]urea], at human TRPV1 [1], the 50% inhibitory concentration (IC50) is 1100 nM. Also, at human TRPV1 [2], the “human TRPV1 H+ (max % remain)” value came to 3%.

In the case of `O=C(Nc1cccc2c1C[C@H](O)C2)N[C@@H]1CC(CF)(CF)Oc2c(F)cccc21` [Example 70, 1-[(4R)-8-fluoro-2,2-bis(fluoromethyl)-3,4-dihydro-2H-chromen-4-yl]-3-[(2R)-2-hydroxy-2,3-dihydro-1H-inden-4-yl]urea], the 50% inhibitory concentration (IC50) at human TRPV1 [1] turned out to be 220 nM. Further, the “human TRPV1 H+ (max % remain)” value on human TRPV1 [2] came out at 99%.

`O=C(Nc1ccc(F)c2c1C[C@H](O)C2)N[C@@H]1CCOc2c(OC(F)(F)F)cccc21` [Example 137, 1-[(2S)-7-fluoro-2-hydroxy-2,3-dihydro-1H-inden-4-yl]-3-[(4R)-8-(trifluoromethoxy)-3,4-dihydro-2H-chromen-4-yl]urea]: at human TRPV1 [1], the half-maximal inhibitory concentration (IC50) amounted to 350 nM. At human TRPV1 [2], the “human TRPV1 H+ (max % remain)” value was 4%.

Take `CC1(C)C[C@@H](NC(=O)Nc2ccc(F)c3c2C[C@@H](O)C3)c2ccccc2O1` [Example 164, 1-[(4R)-2,2-dimethyl-3,4-dihydro-2H-chromen-4-yl]-3-[(2R)-7-fluoro-2-hydroxy-2,3-dihydro-1H-inden-4-yl]urea]: on human TRPV1 [1], the IC50 is 1500 nM. The “human TRPV1 H+ (max % remain)” value on human TRPV1 [2] worked out at 61%.

Regarding `CC1(C)C[C@@H](NC(=O)Nc2ccc(F)c3c2C[C@H](O)C3)c2ccc(Cl)cc2O1` [Example 149, 1-[(4R)-7-chloro-2,2-dimethyl-3,4-dihydro-2H-chromen-4-yl]-3-[(2S)-7-fluoro-2-hydroxy-2,3-dihydro-1H-inden-4-yl]urea], the concentration for half-maximal inhibition (IC50) at human TRPV1 [1] came out at 540 nM. Besides, on human TRPV1 [2], the “human TRPV1 H+ (max % remain)” value was 2%.

With `O=C(Nc1cccc2c1C[C@H](O)C2)N[C@@H]1CC2(CCCC2)Oc2ccccc21` [Example 128, 1-[(4R)-3,4-dihydrospiro[chromene-2,1′-cyclopentan]-4-yl]-3-[(2R)-2-hydroxy-2,3-dihydro-1H-inden-4-yl]urea], on human TRPV1 [1], the IC50 stood at 410 nM. Further, the “human TRPV1 H+ (max % remain)” value on human TRPV1 [2] is 75%.

Take `COc1ccc2c(c1)OCC(Cc1ccc(Cl)c(Cl)c1)C2NC(=O)Nc1cccc2c1CC(O)C2` (stereo not drawn) [Example 114, 1-[3-(3,4-dichlorobenzyl)-7-methoxy-3,4-dihydro-2H-chromen-4-yl]-3-(2-hydroxy-2,3-dihydro-1H-inden-4-yl)urea]: on human TRPV1 [1], the half-maximal inhibitory concentration (IC50) amounted to 720 nM. Further, the “human TRPV1 H+ (max % remain)” value at human TRPV1 [2] is recorded as 43%.

Turning to `O=C(Nc1cccc2c1C[C@H](O)C2)N[C@@H]1CC(CF)(CF)Oc2c(F)cc(F)cc21` [Example 1, 1-[(4R)-6,8-difluoro-2,2-bis(fluoromethyl)-3,4-dihydro-2H-chromen-4-yl]-3-[(2R)-2-hydroxy-2,3-dihydro-1H-inden-4-yl]urea], the concentration for half-maximal inhibition (IC50) at human TRPV1 [1] was 300 nM. In addition, the “human TRPV1 H+ (max % remain)” value at human TRPV1 [2] worked out at 61%.

With `O=C(Nc1cccc2c1C[C@@H](O)C2)N[C@@H]1CC(CF)(CF)Oc2c(F)cc(F)cc21` [Example 79, 1-[(4R)-6,8-difluoro-2,2-bis(fluoromethyl)-3,4-dihydro-2H-chromen-4-yl]-3-[(2S)-2-hydroxy-2,3-dihydro-1H-inden-4-yl]urea], on human TRPV1 [1], the IC50 amounted to 710 nM. Besides, on human TRPV1 [2], the “human TRPV1 H+ (max % remain)” value turned out to be 15%.

Regarding `CCC1(CC)C[C@@H](NC(=O)Nc2cccc3c2C[C@H](O)C3)c2ccc(Cl)cc2O1` [Example 54, 1-[(4R)-7-chloro-2,2-diethyl-3,4-dihydro-2H-chromen-4-yl]-3-[(2R)-2-hydroxy-2,3-dihydro-1H-inden-4-yl]urea], the IC50 on human TRPV1 [1] amounted to 76 nM. The “human TRPV1 H+ (max % remain)” value at human TRPV1 [2] was 59%.

For the compound `CC1(C)C[C@@H](NC(=O)Nc2cccc3c2C[C@@H](O)C3)c2cccc(F)c2O1` [Example 71, 1-[(4R)-8-fluoro-2,2-dimethyl-3,4-dihydro-2H-chromen-4-yl]-3-[(2S)-2-hydroxy-2,3-dihydro-1H-inden-4-yl]urea], the IC50 at human TRPV1 [1] turned out to be 520 nM. Besides, the “human TRPV1 H+ (max % remain)” value on human TRPV1 [2] stood at 52%.

For `O=C(Nc1ccc(F)c2c1C[C@@H](O)C2)N[C@@H]1CCOc2cc(OC(F)(F)F)ccc21` [Example 168, 1-[(2R)-7-fluoro-2-hydroxy-2,3-dihydro-1H-inden-4-yl]-3-[(4R)-7-(trifluoromethoxy)-3,4-dihydro-2H-chromen-4-yl]urea], at human TRPV1 [1], the IC50 stood at 850 nM. Further, the “human TRPV1 H+ (max % remain)” value at human TRPV1 [2] is given as 70%.

As for `COc1ccc(C2CC(NC(=O)Nc3cccc4c3CC(O)C4)c3ccccc3O2)cc1OC` (stereo not drawn) [Example 113, 1-[2-(3,4-dimethoxyphenyl)-3,4-dihydro-2H-chromen-4-yl]-3-(2-hydroxy-2,3-dihydro-1H-inden-4-yl)urea], the IC50 at human TRPV1 [1] was above 38000 nM. For the same compound, the “human TRPV1 H+ (max % remain)” value on human TRPV1 [2] was determined as 74%.
